Source: US20240262795A1, “PYRAZINE COMPOUNDS AS INHIBITORS OF FLT3” (Biomea Fusion, Inc., priority 2021, published 2024)

Each molecule was assayed against T1, WT FLT3 (Homo sapiens, UniProt P36888) (assay: WT FLT3 Lance Ultra TR-FRET kinase assay).
T1 construct: purchased Invitrogen PR4666C
T1 sequence (P36888 564-993 limits assumed): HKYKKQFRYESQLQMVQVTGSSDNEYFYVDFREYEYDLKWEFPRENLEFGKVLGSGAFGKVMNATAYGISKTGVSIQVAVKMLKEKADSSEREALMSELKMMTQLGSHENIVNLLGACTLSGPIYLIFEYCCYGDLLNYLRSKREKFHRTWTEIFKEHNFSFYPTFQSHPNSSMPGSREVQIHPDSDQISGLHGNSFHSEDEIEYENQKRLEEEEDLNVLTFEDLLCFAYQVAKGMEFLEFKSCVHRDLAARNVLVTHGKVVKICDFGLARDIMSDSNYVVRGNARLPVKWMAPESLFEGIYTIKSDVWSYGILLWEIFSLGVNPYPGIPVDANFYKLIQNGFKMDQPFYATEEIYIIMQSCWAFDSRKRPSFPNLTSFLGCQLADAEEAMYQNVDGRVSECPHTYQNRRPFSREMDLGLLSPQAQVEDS
Type: biochemical
Summary of the method: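 Lance Ultra TR-FRET with 50 nM ULight-JAK-1 (Tyr1023) peptide, Eu-anti-phosphotyrosine (PT66) detection, in HEPES pH 7.5 buffer at 23° C, 30 min enzyme/compound preincubation. WT: 0.5 nM enzyme, 100 μM ATP, 30 min; ITD: 0.0625 nM, 50 μM ATP, 60 min. IC50 by four-parameter fit of 11-point 3× dilutions.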

Row | SMILES | IC50
1 | CCc1nc(Nc2cccc([C@@H](C)CNC(=O)CN(C)C(=O)/C=C/CN3CCC3)c2)c(C(N)=O)nc1CC [Compound 508, (R, E)-3-((3-(1-(2-(4-(azetidin-1-yl)-N-methylbut-2-enamido)acetamido)propan-2-yl)phenyl)amino)-5,6-diethylpyrazine-2-carboxamide] | 501 to 1000 pM
2 | CCc1nc(C(N)=O)c(Nc2cccc([C@@H](C)CNC(=O)CN(C)C(=O)/C=C/CN3CCC3)c2)nc1N(C)CC [Compound 518, (R,E)-3-((3-(1-(2-(4-(azetidin-1-yl)-N-methylbut-2-enamido)acetamido)propan-2-yl)phenyl)amino)-6-ethyl-5-(ethyl(methyl)amino)pyrazine-2-carboxamide] | 201 to 500 pM
3 | CCc1nc(C(N)=O)c(Nc2ccnc(CCNC(=O)[C@H](C)N(C)C(=O)/C=C/CN(C)C)c2)nc1N(C)C(C)C [Compound 605, (S, E)-3-((2-(2-(2-(4-(dimethylamino)-N-methylbut-2-enamido)propanamido)ethyl)pyridin-4-yl)amino)-6-ethyl-5-(isopropyl (methyl)amino) pyrazine-2-carboxamide] | 201 to 500 pM
4 | CCc1nc(C(N)=O)c(Nc2ccnc(CCNC(=O)[C@H](C)N(C)C(=O)/C=C/CN(C)C)c2)nc1C1CC1 [Compound 310, (S,E)-5-cyclopropyl-3-((2-(2-(2-(4-(dimethylamino)-N-methylbut-2-enamido)propanamido)ethyl)pyridin-4-yl)amino)-6-ethylpyrazine-2-carboxamide] | 501 to 1000 pM
5 | CCc1nc(C(N)=O)c(Nc2cccc(CCNC(=O)[C@H](C)N(C)C(=O)/C=C/CN(C)C)c2)nc1NC(C)C [Compound 205, (S,E)-3-((3-(2-(2-(4-(dimethylamino)-N-methylbut-2-enamido)propanamido)ethyl)phenyl)amino)-6-ethyl-5-(isopropylamino)pyrazine-2-carboxamide] | 101 to 200 pM
6 | CCCc1nc(Nc2cccc([C@@H](C)CNC(=O)CN(C)C(=O)/C=C/CN3CCC3)c2)c(C(N)=O)nc1CC [Compound 507, (R,E)-3-((3-(1-(2-(4-(azetidin-1-yl)-N-methylbut-2-enamido)acetamido)propan-2-yl)phenyl)amino)-6-ethyl-5-propylpyrazine-2-carboxamide] | 201 to 500 pM
7 | CCc1nc(C(N)=O)c(Nc2cccc(CCNC(=O)[C@H](C)N(C)C(=O)/C=C/CN(C)C)c2)nc1N(C)C(C)C [Compound 204, (S,E)-3-((3-(2-(2-(4-(dimethylamino)-N-methylbut-2-enamido)propanamido)ethyl)phenyl)amino)-6-ethyl-5-(isopropyl(methyl)amino)pyrazine-2-carboxamide] | 101 to 200 pM
8 | CCOc1nc(Nc2cccc(CCNC(=O)CN(C)C(=O)/C=C/CN3CCC3)c2)c(C(N)=O)nc1CC [Compound 602, (E)-3-((3-(2-(2-(4-(azetidin-1-yl)-N-methylbut-2-enamido)acetamido)ethyl)phenyl)amino)-5-ethoxy-6-ethylpyrazine-2-carboxamide] | 201 to 500 pM
9 | CCc1nc(C(N)=O)c(Nc2cc(F)cc(CCNC(=O)CN(C)C(=O)/C=C/CN3CCC3)c2)nc1C1CC1 [Compound 516, (E)-3-((3-(2-(2-(4-(azetidin-1-yl)-N-methylbut-2-enamido)acetamido)ethyl)-5-fluorophenyl)amino)-5-cyclopropyl-6-ethylpyrazine-2-carboxamide] | 201 to 500 pM
10 | CCc1nc(C(N)=O)c(Nc2cccc(CCNC(=O)CN(C)C(=O)/C=C/CN(C)C)c2)nc1N(C)CC [Compound 252, (E)-3-((3-(2-(2-(4-(dimethylamino)-N-methylbut-2-enamido)acetamido)ethyl)phenyl)amino)-6-ethyl-5-(ethyl (methyl)amino) pyrazine-2-carboxamide] | 201 to 500 pM
11 | CCc1nc(C(N)=O)c(Nc2cccc(CCNC(=O)[C@H](C)N(C)C(=O)/C=C/CNC)c2)nc1N(C)C(C)C [Compound 307, (S,E)-6-ethyl-5-(isopropyl(methyl)amino)-3-((3-(2-(2-(N-methyl-4-(methylamino)but-2-enamido)propanamido)ethyl)phenyl)amino)pyrazine-2-carboxamide] | 201 to 500 pM
12 | CCc1nc(C(N)=O)c(Nc2cccc(CCNC(=O)CN(C)C(=O)/C=C/CN3CCC3)c2)nc1N(C)CC [Compound 516A, (E)-3-((3-(2-(2-(4-(azetidin-1-yl)-N-methylbut-2-enamido)acetamido)ethyl)phenyl)amino)-6-ethyl-5-(ethyl(methyl)amino) pyrazine-2-carboxamide] | 501 to 1000 pM
13 | CCc1nc(C(N)=O)c(Nc2cccc([C@@H](C)CNC(=O)CN(C)C(=O)/C=C/CN3CCC3)c2)nc1C1CC1 [Compound 506, (R,E)-3-((3-(1-(2-(4-(azetidin-1-yl)-N-methylbut-2-enamido)acetamido)propan-2-yl)phenyl)amino)-5-cyclopropyl-6-ethylpyrazine-2-carboxamide] | 101 to 200 pM
14 | Cc1nc(C(N)=O)c(Nc2cccc(CCNC(=O)CN(C)C(=O)/C=C/CN(C)C)c2)nc1N(C)C(C)C [Compound 250, (E)-3-((3-(2-(2-(4-(dimethylamino)-N-methylbut-2-enamido)acetamido)ethyl)phenyl)amino)-5-(isopropyl(methyl)amino)-6-methylpyrazine-2-carboxamide] | 201 to 500 pM
15 | CCc1nc(C(N)=O)c(Nc2cccc(CCNC(=O)CN(C)C(=O)/C=C/CN3CCC3)c2)nc1OC(C)C [Compound 603, (E)-3-((3-(2-(2-(4-(azetidin-1-yl)-N-methylbut-2-enamido)acetamido)ethyl)phenyl)amino)-6-ethyl-5-isopropoxypyrazine-2-carboxamide] | 201 to 500 pM
16 | Cc1nc(C(N)=O)c(Nc2cccc(CCNC(=O)[C@H](C)N(C)C(=O)/C=C/CN(C)C)c2)nc1N(C)C(C)C [Compound 232, (S, E)-3-((3-(2-(2-(4-(dimethylamino)-N-methylbut-2-enamido)propanamido)ethyl)phenyl)amino)-5-(isopropyl (methyl)amino)-6-methylpyrazine-2-carboxamide] | 501 to 1000 pM
